Where two headings read alike, the source gives them in different places. Bounds are passed on as bounds.

For data set [1], the target named is T1, R. jostii ADP-Glc PPase (RjoGlgC) (Rhodococcus jostii, UniProt Q0S3Y4).
T1 construct: gene glgC; full length, N-terminal His-tag (pET28c), E. coli BL21(DE3) with GroEL/GroES; start GTG changed to ATG, primer encodes MRSQPHV; homotetramer 190 kDa
T1 sequence (Q0S3Y4 1-404): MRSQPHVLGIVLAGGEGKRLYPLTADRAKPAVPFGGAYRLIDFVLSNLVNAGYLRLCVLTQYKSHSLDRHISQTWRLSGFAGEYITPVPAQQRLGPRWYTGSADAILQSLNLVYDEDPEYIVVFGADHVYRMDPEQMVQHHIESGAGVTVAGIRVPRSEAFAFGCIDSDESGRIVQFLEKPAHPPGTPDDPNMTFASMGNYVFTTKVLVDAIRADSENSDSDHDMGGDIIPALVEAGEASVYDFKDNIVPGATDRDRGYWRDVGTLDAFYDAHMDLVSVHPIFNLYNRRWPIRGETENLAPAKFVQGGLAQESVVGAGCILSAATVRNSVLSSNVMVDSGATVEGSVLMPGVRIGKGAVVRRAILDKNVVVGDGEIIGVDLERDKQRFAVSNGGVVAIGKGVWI
In words: colorimetric Pi release (Malachite Green) assay of ADP-Glc synthesis, Hill fit. Type of data set: biochemical. From the text:
colorimetric Pi release (Malachite Green) assay of ADP-Glc synthesis, Hill fit on R. jostii ADP-Glc PPase (RjoGlgC)

Data set [2] addresses T1, R. jostii ADP-Glc PPase (RjoGlgC). The data set is described as above. The following applies: no activator; co-substrate ATP; 5 mM MgCl2, pH 8.0, 37°C; read-out: S0.5. Type of data set: biochemical.
Substrate in data set [3]: Nc1ncnc2c1ncn2[C@@H]1O[C@H](COP(=O)(O)OP(=O)(O)OP(=O)(O)O)[C@@H](O)[C@H]1O
The description is as above. The data set is classed as biochemical, Rhodococcus jostii. The following applies: no activator, co-substrate Glc-1P saturating, 5 mM MgCl2, pH 8.0, 37°C.

Substrate in data set [4]: O=P(O)(O)O[C@H]1O[C@H](CO)[C@@H](O)[C@H](O)[C@H]1O
The data set is described as above. Type of data set: biochemical, Rhodococcus jostii. The following applies: no activator, co-substrate ATP saturating, 5 mM MgCl2, pH 8.0, 37°C.

Data set [5] concerns the molecule itself. Description: SEC; Superdex 200 size exclusion chromatography of the purified enzyme; data not shown. (In general: Size exclusion chromatography separates by hydrodynamic size, large species first.)
[6] abbreviates: allosteric activator; 5 mM MgCl2, ATP and Glc-1P, pH 8.0, 37°C; read-out: A0.5.

Take `O=P(O)(O)OC[C@H]1OC(O)[C@H](O)[C@@H](O)[C@@H]1O` (stereo partly drawn) [Glc-6P]: in data set [1] (read-out: A0.5; allosteric activator; 5 mM MgCl2, ATP and Glc-1P, pH 8.0, 37°C), the EC50 was 88 ± 5 µM.

Turning to `O=P(O)(O)OC[C@H]1OC(O)[C@@H](O)[C@@H](O)[C@@H]1O` (stereo partly drawn) [Man-6P], the EC50 in data set [1] (setting [6]) came out at 56 ± 5 µM.

As for `C=C(OP(=O)(O)O)C(=O)O` [PEP], the EC50 in data set [1] (read-out: A0.5) stood at 300 ± 200 µM.

As to `O=P(O)(O)OC[C@H]1OC(O)(CO)[C@@H](O)[C@@H]1O` (stereo partly drawn) [Fru-6P], the EC50 in data set [1] (setting [6]) is 2200 ± 100 µM.

For `N[C@H]1[C@@H](OP(=O)(O)O)O[C@H](CO)[C@@H](O)[C@@H]1O` [GlcN-1P], the Km in data set [2] is above 6 mM.

On to `O=P(O)(O)OC[C@H]1OC(O)[C@H](O)[C@@H]1O` (stereo partly drawn) [Rib-5P], for which, in data set [1] (setting [6]), the EC50 was 4000 ± 500 µM.

B1: ADP-glucose pyrophosphorylase from Rhodococcus jostii RHA1 (enzyme, UniProt Q0S3Y4 1-404, looked up)
chain: MRSQPHVLGIVLAGGEGKRLYPLTADRAKPAVPFGGAYRLIDFVLSNLVNAGYLRLCVLTQYKSHSLDRHISQTWRLSGFAGEYITPVPAQQRLGPRWYTGSADAILQSLNLVYDEDPEYIVVFGADHVYRMDPEQMVQHHIESGAGVTVAGIRVPRSEAFAFGCIDSDESGRIVQFLEKPAHPPGTPDDPNMTFASMGNYVFTTKVLVDAIRADSENSDSDHDMGGDIIPALVEAGEASVYDFKDNIVPGATDRDRGYWRDVGTLDAFYDAHMDLVSVHPIFNLYNRRWPIRGETENLAPAKFVQGGLAQESVVGAGCILSAATVRNSVLSSNVMVDSGATVEGSVLMPGVRIGKGAVVRRAILDKNVVVGDGEIIGVDLERDKQRFAVSNGGVVAIGKGVWI
notes: ADP-glucose pyrophosphorylase (EC 2.7.7.27), product of glgC of Rhodococcus jostii RHA1; gene of 1,215 bp, theoretical molecular mass 43.85 kDa; amplified with primers from the initiation codon (changed from GTG to ATG) to downstream of the stop codon; Homotetramer by size exclusion chromatography; also called R. jostii ADP-Glc PPase; ADP-Glc PPase; source: E. coli BL21 (DE3) harboring pGro7 …
Take B1: the results for the K0.5 in data set [3] and in data set [4] were 1.2 ± 0.1 mM and 1.8 ± 0.2 mM, respectively. Also, the “stoichiometry N” value in data set [5] came to 4.

As usually defined, the stoichiometry N is the number of molecules, sites or subunits per partner or assembly.

(Values after PMC4890535, “On the Kinetic and Allosteric Regulatory Properties of the ADP-Glucose Pyrophosphorylase from Rhodococcus jostii: An Approach to Evaluate Glycogen Metabolism in Oleaginous Bacteria” (Frontiers in Microbiology, 2016).)
